Results as given in ChEMBL document CHEMBL3997765 (Medchemcomm, 2016).

Assays:
[1] = molecular target: Vascular endothelial growth factor receptor 2 (Homo sapiens) (UniProt P35968); experiment: Inhibition of recombinant human His-tagged KDR cytoplasmic domain (789 to 1356 residues) expressed in baculovirus expression system at 10 uM by Z'-LYTE assay relative to control
[2] = molecular target: Tyrosine-protein kinase JAK3 (Homo sapiens) (UniProt P52333); experiment: Inhibition of recombinant human GST-tagged JAK3 catalytic domain (781 to 1124 residues) expressed in baculovirus expression system at 10 uM by Z'-LYTE assay relative to control
[3] = molecular target: Receptor-type tyrosine-protein kinase FLT3 (Homo sapiens) (UniProt P36888); experiment: Inhibition of recombinant human His-tagged FLT3 cytoplasmic domain (564 to 958 residues) expressed in baculovirus expression system at 10 uM by Z'-LYTE assay relative to control
Receptor-type tyrosine-protein kinase FLT3 (Homo sapiens), sequence (P36888 whole entry, the tested form may be a part): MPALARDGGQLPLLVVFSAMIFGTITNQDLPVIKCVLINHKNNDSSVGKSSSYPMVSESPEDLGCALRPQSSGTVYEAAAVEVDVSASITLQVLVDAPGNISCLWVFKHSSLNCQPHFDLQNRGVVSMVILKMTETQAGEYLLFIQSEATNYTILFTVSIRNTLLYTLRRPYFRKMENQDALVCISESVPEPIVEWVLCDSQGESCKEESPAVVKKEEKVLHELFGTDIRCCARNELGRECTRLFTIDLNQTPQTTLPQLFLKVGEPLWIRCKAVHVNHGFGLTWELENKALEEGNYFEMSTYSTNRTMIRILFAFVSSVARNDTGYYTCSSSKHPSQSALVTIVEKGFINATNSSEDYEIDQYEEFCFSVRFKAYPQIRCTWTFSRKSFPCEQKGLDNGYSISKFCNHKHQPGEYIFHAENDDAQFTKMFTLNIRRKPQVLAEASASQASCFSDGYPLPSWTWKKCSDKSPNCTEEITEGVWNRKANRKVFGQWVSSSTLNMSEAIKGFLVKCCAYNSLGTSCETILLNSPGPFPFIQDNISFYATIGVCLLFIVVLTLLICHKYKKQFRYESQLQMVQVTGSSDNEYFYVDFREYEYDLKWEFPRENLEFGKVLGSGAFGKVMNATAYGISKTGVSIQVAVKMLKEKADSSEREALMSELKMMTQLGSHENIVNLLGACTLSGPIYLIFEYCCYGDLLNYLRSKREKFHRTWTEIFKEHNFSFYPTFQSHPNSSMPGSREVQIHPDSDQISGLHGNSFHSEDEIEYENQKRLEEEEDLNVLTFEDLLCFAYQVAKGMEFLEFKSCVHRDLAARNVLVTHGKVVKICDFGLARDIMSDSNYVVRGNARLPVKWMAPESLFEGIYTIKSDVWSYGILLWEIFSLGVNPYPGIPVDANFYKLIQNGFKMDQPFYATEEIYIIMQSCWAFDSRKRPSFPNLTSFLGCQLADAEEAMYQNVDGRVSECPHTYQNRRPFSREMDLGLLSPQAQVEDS

[4] = molecular target: Tyrosine-protein kinase BTK (Homo sapiens) (UniProt Q06187); experiment: Inhibition of recombinant human His-tagged BTK cytoplasmic domain expressed in baculovirus expression system at 10 uM by Z'-LYTE assay relative to control
[5] = molecular target: Casein kinase II subunit alpha (Homo sapiens) (UniProt P68400); experiment: Inhibition of full length recombinant human His-tagged CK2alpha1 expressed in baculovirus expression system at 10 uM by Z'-LYTE assay relative to control
Casein kinase II subunit alpha (Homo sapiens), sequence (P68400 whole entry, looked up): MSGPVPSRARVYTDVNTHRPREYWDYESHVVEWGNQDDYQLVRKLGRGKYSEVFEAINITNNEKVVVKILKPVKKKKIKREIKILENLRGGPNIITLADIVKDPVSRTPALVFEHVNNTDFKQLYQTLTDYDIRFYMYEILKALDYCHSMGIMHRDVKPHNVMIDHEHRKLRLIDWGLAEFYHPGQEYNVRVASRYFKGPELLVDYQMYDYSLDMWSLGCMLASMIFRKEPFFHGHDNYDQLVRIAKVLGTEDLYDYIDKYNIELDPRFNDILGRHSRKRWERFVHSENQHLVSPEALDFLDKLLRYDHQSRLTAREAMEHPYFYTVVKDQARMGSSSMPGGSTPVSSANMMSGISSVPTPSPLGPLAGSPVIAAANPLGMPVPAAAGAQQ

[6] = molecular target: Dual specificity tyrosine-phosphorylation-regulated kinase 3 (Homo sapiens) (UniProt O43781); experiment: Inhibition of full length recombinant human GST-tagged DYRK3 expressed in baculovirus expression system at 10 uM by Z'-LYTE assay relative to control
[7] = molecular target: Mitogen-activated protein kinase kinase kinase kinase 4 (Homo sapiens) (UniProt O95819); experiment: Inhibition of recombinant human GST-tagged HGK catalytic domain (1 to 328 residues) expressed in baculovirus expression system at 10 uM by Z'-LYTE assay relative to control
[8] = molecular target: Ribosomal protein S6 kinase beta-1 (Homo sapiens) (UniProt P23443); experiment: Inhibition of recombinant human GST-tagged p70S6K catalytic domain (1 to 421 residues) expressed in baculovirus expression system at 10 uM relative to control
[9] = molecular target: Tyrosine-protein kinase Lck (Homo sapiens) (UniProt P06239); experiment: Inhibition of recombinant human C-terminal His-tagged LCK cytoplasmic domain expressed in baculovirus expression system at 10 uM by Z'-LYTE assay relative to control
Tyrosine-protein kinase Lck (Homo sapiens), sequence (P06239 2-509 limits assumed): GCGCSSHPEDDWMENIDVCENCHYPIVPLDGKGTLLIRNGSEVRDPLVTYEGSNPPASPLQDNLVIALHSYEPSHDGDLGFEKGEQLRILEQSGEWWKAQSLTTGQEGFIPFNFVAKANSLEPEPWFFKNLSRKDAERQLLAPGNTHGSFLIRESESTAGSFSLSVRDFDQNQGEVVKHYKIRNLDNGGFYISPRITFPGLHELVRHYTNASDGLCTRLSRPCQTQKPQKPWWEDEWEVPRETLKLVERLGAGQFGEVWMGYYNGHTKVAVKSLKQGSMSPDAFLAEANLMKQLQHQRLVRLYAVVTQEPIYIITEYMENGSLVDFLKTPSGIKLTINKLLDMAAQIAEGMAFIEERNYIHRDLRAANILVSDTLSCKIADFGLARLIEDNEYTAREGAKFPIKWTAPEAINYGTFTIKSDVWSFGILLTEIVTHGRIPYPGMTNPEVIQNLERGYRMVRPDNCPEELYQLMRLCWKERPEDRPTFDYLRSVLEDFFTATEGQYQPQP

[10] = molecular target: Insulin receptor (Homo sapiens) (UniProt P06213); experiment: Inhibition of recombinant human GST-tagged INSR cytoplasmic domain (1011 to 1382 residues) expressed in baculovirus expression system at 10 uM by Z'-LYTE assay relative to control
Insulin receptor (Homo sapiens), sequence (P06213 28-758 limits assumed): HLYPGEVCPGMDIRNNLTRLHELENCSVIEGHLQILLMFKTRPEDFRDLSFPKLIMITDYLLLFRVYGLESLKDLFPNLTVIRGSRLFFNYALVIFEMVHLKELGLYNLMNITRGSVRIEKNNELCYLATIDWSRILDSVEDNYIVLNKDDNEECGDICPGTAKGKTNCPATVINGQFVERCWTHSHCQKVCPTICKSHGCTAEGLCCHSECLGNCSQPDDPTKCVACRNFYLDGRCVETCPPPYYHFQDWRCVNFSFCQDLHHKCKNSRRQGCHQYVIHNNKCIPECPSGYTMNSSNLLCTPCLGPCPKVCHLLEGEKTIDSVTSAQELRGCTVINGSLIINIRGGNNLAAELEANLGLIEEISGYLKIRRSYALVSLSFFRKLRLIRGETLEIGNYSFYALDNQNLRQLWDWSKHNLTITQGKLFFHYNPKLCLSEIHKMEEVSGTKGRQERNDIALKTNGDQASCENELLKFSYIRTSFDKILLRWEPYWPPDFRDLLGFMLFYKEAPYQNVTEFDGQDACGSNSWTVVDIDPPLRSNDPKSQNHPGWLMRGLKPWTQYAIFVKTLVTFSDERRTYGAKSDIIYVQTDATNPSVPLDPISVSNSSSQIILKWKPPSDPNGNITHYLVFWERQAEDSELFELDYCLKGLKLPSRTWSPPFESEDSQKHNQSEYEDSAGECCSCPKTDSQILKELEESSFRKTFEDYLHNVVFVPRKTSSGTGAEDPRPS
Insulin receptor (Homo sapiens), sequence (P06213 763-1382 limits assumed): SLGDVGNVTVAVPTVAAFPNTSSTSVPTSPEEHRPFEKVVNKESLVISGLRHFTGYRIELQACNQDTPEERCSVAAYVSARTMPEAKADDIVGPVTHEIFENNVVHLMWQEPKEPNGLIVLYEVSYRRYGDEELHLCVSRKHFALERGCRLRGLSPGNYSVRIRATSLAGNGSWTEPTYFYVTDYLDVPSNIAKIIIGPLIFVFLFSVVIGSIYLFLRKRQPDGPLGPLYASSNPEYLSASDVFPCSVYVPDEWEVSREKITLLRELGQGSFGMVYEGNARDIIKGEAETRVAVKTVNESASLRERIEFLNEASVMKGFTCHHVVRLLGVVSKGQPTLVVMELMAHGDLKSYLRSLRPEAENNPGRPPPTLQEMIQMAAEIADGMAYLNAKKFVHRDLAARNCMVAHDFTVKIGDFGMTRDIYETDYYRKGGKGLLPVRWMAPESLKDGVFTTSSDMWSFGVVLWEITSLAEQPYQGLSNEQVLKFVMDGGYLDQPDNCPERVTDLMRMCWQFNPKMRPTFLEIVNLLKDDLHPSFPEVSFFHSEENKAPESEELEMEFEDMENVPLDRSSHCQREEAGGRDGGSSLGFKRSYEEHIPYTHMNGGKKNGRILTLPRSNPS

[11] = molecular target: Serine/threonine-protein kinase Chk1 (Homo sapiens) (UniProt O14757); experiment: Inhibition of full length recombinant human His-tagged CHK1 expressed in baculovirus expression system at 10 uM by Z'-LYTE assay relative to control
[12] = molecular target: Epidermal growth factor receptor (Homo sapiens) (UniProt P00533); experiment: Inhibition of recombinant human GST-tagged EGFR cytoplasmic domain (668 to 1210 residues) expressed in baculovirus expression system at 10 uM by Z'-LYTE assay relative to control
[13] = molecular target: Glycogen synthase kinase-3 beta (Homo sapiens) (UniProt P49841); experiment: Inhibition of full length recombinant human His-tagged GSK3beta expressed in baculovirus expression system at 10 uM by Z'-LYTE assay relative to control
[14] = molecular target: Proto-oncogene tyrosine-protein kinase Src (Homo sapiens) (UniProt P12931); experiment: Inhibition of recombinant human C-terminal His-tagged SRC cytoplasmic domain expressed in baculovirus expression system at 10 uM by Z'-LYTE assay relative to control
[15] = molecular target: High affinity nerve growth factor receptor (Homo sapiens) (UniProt P04629); experiment: Inhibition of recombinant human His-tagged TRKA cytoplasmic domain (441 to 796 residues) expressed in baculovirus expression system at 10 uM by Z'-LYTE assay relative to control
[16] = molecular target: Angiopoietin-1 receptor (Homo sapiens) (UniProt Q02763); experiment: Inhibition of recombinant human GST-tagged TIE2 cytoplasmic domain (817 to 1101 residues) expressed in baculovirus expression system at 10 uM by Z'-LYTE assay relative to control
[17] = molecular target: Protein kinase C beta type (Homo sapiens) (UniProt P05771); experiment: Inhibition of full length recombinant human PKCbeta1 expressed in baculovirus expression system at 10 uM relative to control
[18] = molecular target: Cyclin-dependent kinase 1/cyclin B1 (Homo sapiens) (UniProt P06493+P14635); experiment: Inhibition of full length recombinant human His-tagged CDK1/Cyclin B expressed in baculovirus expression system at 10 uM by Z'-LYTE assay relative to control
[19] = molecular target: Rho-associated protein kinase 1 (Homo sapiens) (UniProt Q13464); experiment: Inhibition of recombinant human GST-tagged ROCK1 catalytic domain (1 to 535 residues) expressed in baculovirus expression system at 10 uM relative to control
[20] = molecular target: Mitogen-activated protein kinase 3 (Homo sapiens) (UniProt P27361); experiment: Inhibition of full length recombinant human GST-tagged ERK1 expressed in Escherichia coli at 10 uM by Z'-LYTE assay relative to control
Mitogen-activated protein kinase 3 (Homo sapiens), sequence (P27361 whole entry, the tested form may be a part): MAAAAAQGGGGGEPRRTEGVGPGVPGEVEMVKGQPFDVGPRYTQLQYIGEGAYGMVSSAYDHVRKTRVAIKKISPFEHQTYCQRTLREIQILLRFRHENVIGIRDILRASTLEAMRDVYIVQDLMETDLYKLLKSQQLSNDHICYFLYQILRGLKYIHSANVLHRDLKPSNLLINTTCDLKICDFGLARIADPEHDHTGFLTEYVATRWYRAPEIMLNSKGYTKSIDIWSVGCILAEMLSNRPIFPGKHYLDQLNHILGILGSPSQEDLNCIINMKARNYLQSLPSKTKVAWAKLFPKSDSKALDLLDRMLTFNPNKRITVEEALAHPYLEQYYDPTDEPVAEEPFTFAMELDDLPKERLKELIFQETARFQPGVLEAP

[21] = molecular target: Platelet-derived growth factor receptor beta (Homo sapiens) (UniProt P09619); experiment: Inhibition of recombinant human His-tagged PDGFRbeta cytoplasmic domain (558 to 1106 residues) expressed in baculovirus expression system at 10 uM by Z'-LYTE assay relative to control
[22] = molecular target: Proto-oncogene tyrosine-protein kinase receptor Ret (Homo sapiens) (UniProt P07949); experiment: Inhibition of recombinant human GST-tagged RET cytoplasmic domain (658 to 1114 residues) expressed in baculovirus expression system at 10 uM relative to control
Proto-oncogene tyrosine-protein kinase receptor Ret (Homo sapiens), sequence (P07949 whole entry, the tested form may be a part): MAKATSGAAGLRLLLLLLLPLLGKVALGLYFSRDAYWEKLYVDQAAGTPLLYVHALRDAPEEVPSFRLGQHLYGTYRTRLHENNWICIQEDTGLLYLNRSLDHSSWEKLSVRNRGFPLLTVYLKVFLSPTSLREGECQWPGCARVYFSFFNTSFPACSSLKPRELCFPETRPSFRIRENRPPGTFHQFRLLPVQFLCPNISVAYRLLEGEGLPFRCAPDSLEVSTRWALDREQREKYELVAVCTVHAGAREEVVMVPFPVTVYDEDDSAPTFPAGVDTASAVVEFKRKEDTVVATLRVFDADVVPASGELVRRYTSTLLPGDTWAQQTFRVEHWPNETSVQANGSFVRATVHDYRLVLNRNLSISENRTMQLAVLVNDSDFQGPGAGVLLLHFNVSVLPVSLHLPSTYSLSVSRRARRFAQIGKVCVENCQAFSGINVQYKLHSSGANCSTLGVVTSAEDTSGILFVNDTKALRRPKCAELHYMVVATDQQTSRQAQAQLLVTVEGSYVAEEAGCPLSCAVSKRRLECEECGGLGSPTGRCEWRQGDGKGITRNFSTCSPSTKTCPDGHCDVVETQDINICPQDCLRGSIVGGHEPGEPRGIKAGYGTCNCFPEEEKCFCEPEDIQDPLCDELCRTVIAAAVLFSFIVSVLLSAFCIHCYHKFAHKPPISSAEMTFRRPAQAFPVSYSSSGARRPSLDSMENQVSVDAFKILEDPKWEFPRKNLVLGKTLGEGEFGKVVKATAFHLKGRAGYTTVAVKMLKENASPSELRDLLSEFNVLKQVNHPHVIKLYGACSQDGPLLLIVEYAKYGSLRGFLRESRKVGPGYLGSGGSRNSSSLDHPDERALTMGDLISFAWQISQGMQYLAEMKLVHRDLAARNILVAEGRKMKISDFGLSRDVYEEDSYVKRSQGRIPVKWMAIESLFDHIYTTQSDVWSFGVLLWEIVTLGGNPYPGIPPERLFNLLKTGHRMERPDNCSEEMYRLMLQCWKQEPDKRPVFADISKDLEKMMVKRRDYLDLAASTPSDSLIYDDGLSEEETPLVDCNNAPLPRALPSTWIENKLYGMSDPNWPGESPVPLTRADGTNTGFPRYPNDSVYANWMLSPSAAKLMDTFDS

[23] = molecular target: Tyrosine-protein kinase SYK (Homo sapiens) (UniProt P43405); experiment: Inhibition of recombinant human N-terminal GST-tagged SYK cytoplasmic domain expressed in baculovirus expression system at 10 uM by Z'-LYTE assay relative to control
[24] = molecular target: Mitogen-activated protein kinase 14 (Homo sapiens, UniProt Q16539); experiment: Inhibition of full length recombinant human GST-tagged p38alpha expressed in Escherichia coli at 10 uM using Ser/Thr04 peptide as substrate in presence of inactive MAPKAPK2 after 1 hr by FRET assay relative to control
[25] = molecular target: Phosphorylase b kinase gamma catalytic chain, liver/testis isoform (Homo sapiens) (UniProt P15735); experiment: Inhibition of full length recombinant human GST-tagged PHKG2 expressed in baculovirus expression system at 10 uM relative to control
[26] = molecular target: RAC-alpha serine/threonine-protein kinase (Homo sapiens) (UniProt P31749); experiment: Inhibition of full length recombinant human His-tagged PKBalpha expressed in baculovirus expression system at 10 uM by Z'-LYTE assay relative to control
[27] = molecular target: Serine/threonine-protein kinase pim-1 (Homo sapiens) (UniProt P11309); experiment: Inhibition of full length recombinant human His-tagged PIM1 expressed in baculovirus expression system at 10 uM relative to control
Serine/threonine-protein kinase pim-1 (Homo sapiens), sequence (P11309 whole entry, looked up): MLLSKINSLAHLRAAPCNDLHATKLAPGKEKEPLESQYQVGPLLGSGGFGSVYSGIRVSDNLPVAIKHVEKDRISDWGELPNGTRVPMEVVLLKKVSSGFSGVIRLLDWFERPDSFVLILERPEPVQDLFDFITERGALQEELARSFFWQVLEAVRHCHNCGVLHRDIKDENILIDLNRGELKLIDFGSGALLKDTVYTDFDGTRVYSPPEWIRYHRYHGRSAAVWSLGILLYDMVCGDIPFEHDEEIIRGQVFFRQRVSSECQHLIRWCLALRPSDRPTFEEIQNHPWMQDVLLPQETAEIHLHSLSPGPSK

inhibition [1]: 12%
inhibition [2]: -1%
inhibition [3]: 6%
inhibition [4]: 3%
inhibition [5]: 3%
inhibition [6]: 8%
inhibition [7]: 15%
inhibition [8]: 1%
inhibition [9]: 10%
inhibition [10]: 2%
inhibition [11]: 3%
inhibition [12]: 1%
inhibition [13]: 7%
inhibition [14]: 3%
inhibition [15]: 2%
inhibition [16]: 11%
inhibition [17]: 1%
inhibition [18]: 8%
inhibition [19]: 2%
inhibition [20]: 5%
inhibition [21]: -1%
inhibition [22]: 7%
inhibition [23]: -3%
inhibition [24]: 37%
inhibition [25]: 2%
inhibition [26]: 5%
inhibition [27]: 3%
SMILES: CC1=Nc2c(Sc3ccccc3)ncnc2Sc2ccccc21
